Here are results for 13 compounds from ChEMBL document CHEMBL2401689, “Design, synthesis and antibacterial activity studies of thiazole derivatives as potent ecKAS III inhibitors” (Bioorg Med Chem Lett, 2013).

In brackets after ≈: the same amount, converted by molar mass. A value given as a limit tells only on which side of the number the result lay.

One series concerns Staphylococcus aureus. The experiment in a line: Antibacterial activity against Staphylococcus aureus ATCC 6538 after 24 hrs by MTT assay. Type of series: functional. The following applies: ATCC 6538, 24 h. Background: Tetrazolium assays rely on reduction of a dye to a coloured formazan, in cell work by metabolically active cells.
For orientation: MIC means the lowest concentration that inhibits growth of the organism. A low value points to greater potency. The compound `CCOc1ccc(CC(=O)Nc2nc(-c3ccc(Br)cc3)cs2)cc1OCC` displayed an MIC greater than 100 µg/mL.

For the compound `O=C(Cc1ccc(F)cc1)Nc1nc(-c2ccc(Br)cc2)cs1`, it took 12.5 µg/mL (≈ 31.9 µM) to inhibit growth (MIC).

In the case of `O=C(Cc1ccc(F)cc1)Nc1nc(-c2ccccc2)cs1`, the MIC was 12.5 µg/mL (≈ 40 µM).

Take `O=C(Cc1ccc(Cl)cc1)Nc1nc(-c2ccccc2)cs1`: the MIC was determined as 25 µg/mL (≈ 76 µM).

The compound `O=C(Cc1ccc(Br)cc1)Nc1nc(-c2ccc(Br)cc2)cs1` had an MIC of 25 µg/mL (≈ 55.3 µM).

As to `O=C(Cc1ccccc1)Nc1nc(-c2ccccc2)cs1`, the MIC worked out at 25 µg/mL (≈ 84.9 µM).

As for `O=C(Cc1cccc(Br)c1)Nc1nc(-c2ccccc2)cs1`, the MIC turned out to be 3.13 µg/mL (≈ 8.39 µM).

`O=C(Cc1cccc(Cl)c1)Nc1nc(-c2ccc(Br)cc2)cs1` returned an MIC of 3.13 µg/mL (≈ 7.68 µM).

Turning to `O=C(Nc1nc(-c2ccc(Br)cc2)cs1)c1cccc2ccccc12`, the MIC is greater than 100 µg/mL.

The compound `O=C(Nc1nc(-c2ccccc2)cs1)N1CCOCC1` had an MIC greater than 100 µg/mL.

Take `O=C(Nc1nc(-c2ccc(Br)cc2)cs1)c1ccc2ccccc2c1`: the minimal inhibitory concentration (MIC) is greater than 100 µg/mL.

The compound `O=C(Nc1nc(-c2ccc(Br)cc2)cs1)N1CCOCC1` yielded an MIC greater than 100 µg/mL.

The compound `O=C(Cc1ccc(Cl)cc1)Nc1nc(-c2ccc(Br)cc2)cs1` registered an MIC of 12.5 µg/mL (≈ 30.7 µM).

In a further series the test system is Pseudomonas aeruginosa. Description: Antibacterial activity against Pseudomonas aeruginosa ATCC 13525 after 24 hrs by MTT assay. Type of series: functional. The conditions noted are these: ATCC 13525, 24 h.
For `CCOc1ccc(CC(=O)Nc2nc(-c3ccc(Br)cc3)cs2)cc1OCC`, the MIC came to 25 µg/mL (≈ 54.2 µM).

`O=C(Cc1ccc(F)cc1)Nc1nc(-c2ccc(Br)cc2)cs1` yielded a minimum inhibitory concentration (MIC) of 12.5 µg/mL (≈ 31.9 µM).

Turning to `O=C(Cc1ccc(F)cc1)Nc1nc(-c2ccccc2)cs1`, the MIC amounted to 25 µg/mL (≈ 80 µM).

For the compound `O=C(Cc1ccc(Cl)cc1)Nc1nc(-c2ccccc2)cs1`, the MIC was 25 µg/mL (≈ 76 µM).

In the case of `O=C(Cc1ccc(Br)cc1)Nc1nc(-c2ccc(Br)cc2)cs1`, inhibition of growth (MIC) required 50 µg/mL (≈ 111 µM).

For the compound `O=C(Cc1ccccc1)Nc1nc(-c2ccccc2)cs1`, the MIC is 100 µg/mL (≈ 340 µM).

Regarding `O=C(Cc1cccc(Br)c1)Nc1nc(-c2ccccc2)cs1`, it took 12.5 µg/mL (≈ 33.5 µM) to inhibit growth (MIC).

For `O=C(Cc1cccc(Cl)c1)Nc1nc(-c2ccc(Br)cc2)cs1`, the MIC was 3.13 µg/mL (≈ 7.68 µM).

In turn, `O=C(Nc1nc(-c2ccc(Br)cc2)cs1)c1cccc2ccccc12` had an MIC of 100 µg/mL (≈ 244 µM).

For `O=C(Nc1nc(-c2ccccc2)cs1)N1CCOCC1`, the minimal inhibitory concentration (MIC) is greater than 100 µg/mL.

With `O=C(Nc1nc(-c2ccc(Br)cc2)cs1)c1ccc2ccccc2c1`, the minimum inhibitory concentration (MIC) is greater than 100 µg/mL.

As for `O=C(Nc1nc(-c2ccc(Br)cc2)cs1)N1CCOCC1`, the MIC was greater than 100 µg/mL.

Consider `O=C(Cc1ccc(Cl)cc1)Nc1nc(-c2ccc(Br)cc2)cs1`, for which the minimal inhibitory concentration (MIC) was determined as 25 µg/mL (≈ 61.3 µM).

Tested on in the next series: not listed separately
The experiment in a line: Hemolytic activity in RBC (uinknown origin). The class given is cell-based. The conditions noted are these: erythrocyte.
Compound `O=C(Cc1ccc(F)cc1)Nc1nc(-c2ccc(Br)cc2)cs1` displayed an LC30 greater than 10000 µg/mL.

`O=C(Cc1ccc(F)cc1)Nc1nc(-c2ccccc2)cs1`: the LC30 was greater than 10000 µg/mL.

For the compound `O=C(Cc1ccc(Cl)cc1)Nc1nc(-c2ccccc2)cs1`, the LC30 is greater than 10000 µg/mL.

On to `O=C(Cc1ccc(Br)cc1)Nc1nc(-c2ccc(Br)cc2)cs1`, for which the LC30 is greater than 10000 µg/mL.

`O=C(Cc1cccc(Br)c1)Nc1nc(-c2ccccc2)cs1` showed an LC30 greater than 10000 µg/mL.

Take `O=C(Cc1cccc(Cl)c1)Nc1nc(-c2ccc(Br)cc2)cs1`: the LC30 was greater than 10000 µg/mL.

Take `O=C(Cc1ccc(Cl)cc1)Nc1nc(-c2ccc(Br)cc2)cs1`: the LC30 was greater than 10000 µg/mL.

A further series relates to Bacillus spizizenii. Description: Antibacterial activity against Bacillus subtilis ATCC 6633 after 24 hrs by MTT assay. The conditions noted are these: ATCC 6633, 24 h. Type of series: functional.
As for `CCOc1ccc(CC(=O)Nc2nc(-c3ccc(Br)cc3)cs2)cc1OCC`, it took 50 µg/mL (≈ 108 µM) to inhibit growth (MIC).

As to `O=C(Cc1ccc(F)cc1)Nc1nc(-c2ccc(Br)cc2)cs1`, the MIC amounted to 6.25 µg/mL (≈ 16 µM).

As to `O=C(Cc1ccc(F)cc1)Nc1nc(-c2ccccc2)cs1`, the MIC was 12.5 µg/mL (≈ 40 µM).

As for `O=C(Cc1ccc(Cl)cc1)Nc1nc(-c2ccccc2)cs1`, the MIC came out at 12.5 µg/mL (≈ 38 µM).

With `O=C(Cc1ccc(Br)cc1)Nc1nc(-c2ccc(Br)cc2)cs1`, the MIC was 25 µg/mL (≈ 55.3 µM).

In turn, `O=C(Cc1ccccc1)Nc1nc(-c2ccccc2)cs1` gave an MIC of 50 µg/mL (≈ 170 µM).

`O=C(Cc1cccc(Br)c1)Nc1nc(-c2ccccc2)cs1` registered an MIC of 6.25 µg/mL (≈ 16.7 µM).

For `O=C(Cc1cccc(Cl)c1)Nc1nc(-c2ccc(Br)cc2)cs1`, the MIC worked out at 6.25 µg/mL (≈ 15.3 µM).

Consider `O=C(Nc1nc(-c2ccc(Br)cc2)cs1)c1cccc2ccccc12`, for which the MIC is greater than 100 µg/mL.

`O=C(Nc1nc(-c2ccccc2)cs1)N1CCOCC1`: the MIC is greater than 100 µg/mL.

Turning to `O=C(Nc1nc(-c2ccc(Br)cc2)cs1)c1ccc2ccccc2c1`, the minimal inhibitory concentration (MIC) was greater than 100 µg/mL.

Turning to `O=C(Nc1nc(-c2ccc(Br)cc2)cs1)N1CCOCC1`, inhibition of growth (MIC) required 100 µg/mL (≈ 272 µM).

`O=C(Cc1ccc(Cl)cc1)Nc1nc(-c2ccc(Br)cc2)cs1` showed an MIC of 12.5 µg/mL (≈ 30.7 µM).

For the next series, the system named is Escherichia coli. The experiment in a line: Antibacterial activity against Escherichia coli ATCC 35218 after 24 hrs by MTT assay. The class given is functional. The following applies: ATCC 35218, 24 h.
`CCOc1ccc(CC(=O)Nc2nc(-c3ccc(Br)cc3)cs2)cc1OCC`: the lowest concentration to inhibit growth (MIC) was 50 µg/mL (≈ 108 µM).

`O=C(Cc1ccc(F)cc1)Nc1nc(-c2ccc(Br)cc2)cs1`: the lowest concentration to inhibit growth (MIC) was 12.5 µg/mL (≈ 31.9 µM).

Consider `O=C(Cc1ccc(F)cc1)Nc1nc(-c2ccccc2)cs1`, for which the MIC was found to be 12.5 µg/mL (≈ 40 µM).

As for `O=C(Cc1ccc(Cl)cc1)Nc1nc(-c2ccccc2)cs1`, the MIC is 25 µg/mL (≈ 76 µM).

As for `O=C(Cc1ccc(Br)cc1)Nc1nc(-c2ccc(Br)cc2)cs1`, the MIC is 25 µg/mL (≈ 55.3 µM).

`O=C(Cc1ccccc1)Nc1nc(-c2ccccc2)cs1`: 100 µg/mL (≈ 340 µM) was the least that counted as inhibitory (MIC).

`O=C(Cc1cccc(Br)c1)Nc1nc(-c2ccccc2)cs1`: inhibition of growth (MIC) required 12.5 µg/mL (≈ 33.5 µM).

`O=C(Cc1cccc(Cl)c1)Nc1nc(-c2ccc(Br)cc2)cs1`: the MIC was found to be 1.56 µg/mL (≈ 3.83 µM).

`O=C(Nc1nc(-c2ccc(Br)cc2)cs1)c1cccc2ccccc12` came in with an MIC of 50 µg/mL (≈ 122 µM).

`O=C(Nc1nc(-c2ccccc2)cs1)N1CCOCC1` registered a minimal inhibitory concentration (MIC) greater than 100 µg/mL.

`O=C(Nc1nc(-c2ccc(Br)cc2)cs1)c1ccc2ccccc2c1` showed an MIC greater than 100 µg/mL.

Take `O=C(Nc1nc(-c2ccc(Br)cc2)cs1)N1CCOCC1`: inhibition of growth (MIC) required 50 µg/mL (≈ 136 µM).

`O=C(Cc1ccc(Cl)cc1)Nc1nc(-c2ccc(Br)cc2)cs1` registered an MIC of 12.5 µg/mL (≈ 30.7 µM).

Tested on in another series: not listed separately
The experiment in a line: Displacement of [3H]acetyl-CoA from Escherichia coli full-length beta-ketoacyl-ACP synthase3 expressed in Escherichia coli BL21 (DE3) by liquid scintillation counting analysis.
Conditions: not given
Broadly, the IC50 is the concentration that inhibits the measured activity by half. Low values mean inhibition by little substance, high ones a need for much substance. As for `O=C(Cc1ccc(F)cc1)Nc1nc(-c2ccc(Br)cc2)cs1`, the IC50 was 29.3 µM.

`O=C(Cc1ccc(F)cc1)Nc1nc(-c2ccccc2)cs1` gave an IC50 of 38.4 µM.

In turn, `O=C(Cc1ccc(Cl)cc1)Nc1nc(-c2ccccc2)cs1` yielded an IC50 of 41.8 µM.

In turn, `O=C(Cc1ccc(Br)cc1)Nc1nc(-c2ccc(Br)cc2)cs1` gave an IC50 of 48.1 µM.

Regarding `O=C(Cc1cccc(Br)c1)Nc1nc(-c2ccccc2)cs1`, the IC50 came out at 26.9 µM.

Turning to `O=C(Cc1cccc(Cl)c1)Nc1nc(-c2ccc(Br)cc2)cs1`, the concentration for half-maximal inhibition (IC50) turned out to be 5.3 µM.

`O=C(Cc1ccc(Cl)cc1)Nc1nc(-c2ccc(Br)cc2)cs1` came in with a 50% inhibitory concentration (IC50) of 34.7 µM.
